From article PMC12590467, “Accessory Subunit Regulates Thiyl Radical Formation in Benzylsuccinate Synthase” (Biochemistry, 2025)

Molecular target: T1, BSSαβγ (benzylsuccinate synthase) (Thauera aromatica, UniProt O68395)
T1 construct: gene tutD; BSSαγ mixed 1:2 with BSSβ; (αβγ)2; α 865, β 81, γ 60 residues; resolved α 9-865, β 13-81, γ 5-59; catalytic Cys493; with Benzylsuccinate synthase beta subunit; Benzylsuccinate synthase gamma subunit
Assay: X-ray crystal structure, […] Å
Assay type: binding
Conditions: active site; toluene not added, modelled from glovebox atmosphere; also turned over with fumarate; pH 8.5

T1 sequence (O68395 1-864): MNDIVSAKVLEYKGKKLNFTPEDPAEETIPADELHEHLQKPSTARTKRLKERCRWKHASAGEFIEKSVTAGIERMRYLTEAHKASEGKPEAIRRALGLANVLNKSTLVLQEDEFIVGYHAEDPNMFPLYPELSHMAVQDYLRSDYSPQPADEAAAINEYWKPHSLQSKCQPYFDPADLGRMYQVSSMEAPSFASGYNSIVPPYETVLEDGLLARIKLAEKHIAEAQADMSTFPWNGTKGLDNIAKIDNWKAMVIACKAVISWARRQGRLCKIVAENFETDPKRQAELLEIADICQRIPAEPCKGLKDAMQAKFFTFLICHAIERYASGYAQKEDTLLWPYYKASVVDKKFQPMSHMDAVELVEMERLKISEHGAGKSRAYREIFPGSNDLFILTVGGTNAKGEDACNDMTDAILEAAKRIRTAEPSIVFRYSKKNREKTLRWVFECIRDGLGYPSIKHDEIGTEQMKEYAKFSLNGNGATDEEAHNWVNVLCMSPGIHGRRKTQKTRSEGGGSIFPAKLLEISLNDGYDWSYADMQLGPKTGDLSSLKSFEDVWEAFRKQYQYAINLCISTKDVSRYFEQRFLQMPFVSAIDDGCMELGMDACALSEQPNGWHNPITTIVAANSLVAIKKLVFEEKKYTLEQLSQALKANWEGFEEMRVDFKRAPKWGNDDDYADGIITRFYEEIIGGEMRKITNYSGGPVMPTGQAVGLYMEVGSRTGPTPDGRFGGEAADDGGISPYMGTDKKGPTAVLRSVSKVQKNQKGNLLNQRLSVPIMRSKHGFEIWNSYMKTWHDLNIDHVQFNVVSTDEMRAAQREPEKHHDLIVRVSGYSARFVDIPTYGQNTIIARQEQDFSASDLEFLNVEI
T1 sequence (O68396 1-81 partner): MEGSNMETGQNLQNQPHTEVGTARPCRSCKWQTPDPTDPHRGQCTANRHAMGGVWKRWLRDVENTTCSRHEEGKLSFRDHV
T1 sequence (O68394 1-60 partner): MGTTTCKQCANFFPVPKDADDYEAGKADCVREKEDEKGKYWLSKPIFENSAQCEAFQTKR

## Cc1ccccc1 [toluene]
  X-ray crystal structure, 2.9 Å: In the active site, both toluene and fumarate were modeled and align well
